# Experiments:
# [1] = tested on: production of TNF-α in human PBMCs; test: Inhibition of TNF-α production in human PBMCs (ELISA); type: cell-based; details: PBMC
# Protocol: (§1) Compounds of this invention were evaluated for their ability to inhibit the production of TNF-α in stimulated immune cells. […] Compounds of the present invention were evaluated for their therapeutic activity in animal models for inflammatory or immunological disorders. Also compounds of this invention were assayed for their ability to inhibit PDE4 isozymes.
# Inhibition of TNF-α Production in Human PBMCs: Compounds of the present invention were evaluated for their ability to inhibit the production of TNF-α in human PBMCs as described in the literature. [J. Med. Chem. vol 39, 3238-3240 (1996)] Blood was freshly drawn from healthy human subjects as treated with ACD to isolate human PBMCs according to the procedure employed for rat PBMCs. The employed assay method for the ELISA against human TNF-α was essentially identical to that for the rat TNF-α ELISA assay.
# [2] = tested on: production of TNF-α in rat PBMCs; test: Inhibition of TNF-α production in rat PBMCs (LPS/IFN-γ stimulated, ELISA); type: cell-based; details: PBMC; for IC50: rat PBMCs, LPS + IFN-γ, 18 hours; for inhibition at 3 µg/mL: @ 3 μg/ml
# Protocol: as §1
# Inhibition of TNF-α Production in Rat PBMCs: Compounds of the present invention were evaluated for their ability to inhibit the production of TNF-α in rat peripheral blood mononuclear cells (PBMCs) as described in the literature. [Exp. Geront. vol 37, 235-247 (2002)] In brief, 6 ml rat blood drawn from the abdominal vein as treated with ACD (acid/citrate/dextrose) was carefully added in a tube containing 6 ml Ficoll 1077, and the tube was centrifuged for 30 min at 1500 rpm (415 G) at room temperature. The cell fraction (middle fraction) was suspended in a 50 ml tube containing phosphate buffered saline (PBS). The tube was centrifuged for 5 min at 2000 rpm (737 G). The resulting pellet was suspended in 6 ml PBS and 6 ml Ficoll 1077, and centrifuged for 30 min at 1500 rpm (415 G) at room temperature to remove remaining plasma. The cell fraction was suspended in PBS and centrifuged for 5 min at 2000 rpm. Such a washing was repeated twice. Then the collected cells were suspended in 10 ml RPMI-1640 containing 10% FBS and further diluted to contain 4×10^6 cells per ml. The cell suspension was dispensed into a 96-well plate at 100 μl per well, which was pre-supplemented with 1 μl of either DMSO (placebo) or a DMSO stock solution containing a designated concentration of a compound of this invention. The plate was cultured for an hour at 37° C. under 5% CO2 and 95% O2. To each well, was added 100 μl RPMI-1640 containing 0.1 μg/ml LPS, 5 U/ml IFN-γ, and 10% FBS. Then the plate was subjected to a culture for 18 hours at 37° C. under 5% CO2 and 95% O2. An aliquot of the supernatant from each well was subjected to an ELISA assay to determine the TNF-α level in the well.
# [3] = tested on: production of TNF-α in mice stimulated with LPS; test: In vivo inhibition of TNF-α production in mice stimulated with LPS; details: Mus musculus, 2 h, LPS i.p., plasma at hour 2, read-out: % Inhibition of in vivo TNF-α production @ dose; for inhibition in vivo at 3 mg/kg: 3 mg/kg oral gavage
# Protocol: [J. Pharmacol. Exp. Therapeut. vol 279, 1453-1461 (1996)] In brief, either a compound of the instant invention with vehicle or vehicle only (5% Tween 80) was administered by oral gavage (10 ml/kg body weight) at hour 0 to mice (Balb/C or ICR, 25˜30 g) fasted overnight. The mice were subjected to a peritoneal injection with […] LPS per mouse at hour 0.5, and blood was drawn from the abdominal vein at hour 2 following euthanasia with CO2. Then plasma separated from the drawn blood by centrifugation was subjected to an ELISA assay to measure the level of TNF-α.
smiles,measurement,setting,value
"OCc1ccc(C2=C(C3CCCC3)CCC2=NO)cc1 [Example 26, 3-cyclopentyl-2-(4-hydroxymethylphenyl)-2-cyclopenten-1-one oxime]",melting point,,187 to 190 °C
"O=[N+]([O-])c1cccc(C2=C(C3CCCCC3)CCC2=NO)c1 [Example 31, 3-cyclohexyl-2-(3-nitrophenyl)-2-cyclopenten-1-one oxime]",melting point,,201 to 202 °C
"O=[N+]([O-])c1cccc(C2=C(C3CCCC3)CCC2=NO)c1 [Example 4, 3-cyclopentyl-2-(3-nitrophenyl)-2-cyclopenten-1-one oxime]",melting point,,162 to 163 °C
"CCCCCCCCCc1ccc(C2=C(CC(C)C)CCC2=NO)cc1F [Example 90, 2-(3-fluoro-4-n-nonylphenyl)-3-isobutyl-2-cyclopenten-1-one oxime]",melting point,,85 to 86 °C
"CCCCCC1=C(c2ccc(F)cc2)C(=NO)CC1 [Example 65, 2-(4-fluorophenyl)-3-pentyl-2-cyclopenten-1-one oxime]",IC50,[1],1.2 µg/mL
same,melting point,,101 to 102 °C
same,IC50,[2],~1 µg/mL
"CCCCC1=C(c2ccc(F)cc2)C(=NO)CC1 [Example 33, 3-butyl-2-(4-fluorophenyl)-2-cyclopenten-1-one oxime]",melting point,,115 to 116 °C
same,IC50,[2],2 µg/mL
"C=Cc1ccc(C2=C(C3CCCC3)CCC2=NO)cc1 [Example 18, 3-cyclopentyl-2-(4-vinylphenyl)-2-cyclopenten-1-one oxime]",melting point,,177 to 179 °C
same,inhibition at 3 µg/mL,[2]; Rattus norvegicus,78%
"CCCCCC1=C(c2cccc([N+](=O)[O-])c2)C(=NO)CC1 [Example 71, 2-(3-nitrophenyl)-3-pentyl-2-cyclopenten-1-one oxime]",melting point,,79 to 80 °C
"CCC1=C(c2ccc(F)cc2)C(=NO)CC1 [Example 81, 3-ethyl-2-(4-fluorophenyl)-2-cyclopenten-1-one oxime]",melting point,,168 to 169 °C
same,IC50,[2],~3 µg/mL
"OCc1cccc(C2=C(C3CCCC3)CCC2=NO)c1 [Example 25, 3-cyclopentyl-2-(3-hydroxymethylphenyl)-2-cyclopenten-1-one oxime]",IC50,[2],1.5 µg/mL
"ON=C1CCC(C2CCCCC2)=C1c1ccc(F)c(F)c1 [Example 30, 3-cyclohexyl-2-(3,4-difluorophenyl)-2-cyclopenten-1-one oxime]",IC50,[2],< 0.1 µg/mL
"CC1=C(c2ccc(F)cc2)C(=NO)CC1 [Example 83, 2-(4-fluorophenyl)-3-methyl-2-cyclopenten-1-one oxime]",melting point,,170 to 171 °C
same,IC50,[2],~10 µg/mL
"CCCC1=C(c2ccc(F)cc2)C(=NO)CC1 [Example 78, 2-(4-fluorophenyl)-3-propyl-2-cyclopenten-1-one oxime]",melting point,,165 to 166 °C
same,IC50,[2],0.62 µg/mL
"ON=C1CCC(C2CCCC2)=C1c1cccc2c1oc1ccccc12 [Example 19, 3-cyclopentyl-2-(4-dibenzofuranyl)-2-cyclopenten-1-one oxime]",melting point,,195 to 200 °C
same,IC50,[2],1 µg/mL
"CC(C)CC1=C(c2ccc(F)c(F)c2)C(=NO)CC1 [Example 86, 2-(3,4-difluorophenyl)-3-isobutyl-2-cyclopenten-1-one oxime]",melting point,,136 to 139 °C
same,IC50,[2],0.27 µg/mL
"Cc1ccc(C2=C(C3CCCC3)CCC2=NO)cc1[N+](=O)[O-] [Example 5, 3-cyclopentyl-2-(4-methyl-3-nitrophenyl)-2-cyclopenten-1-one oxime]",melting point,,178 to 180 °C
same,inhibition at 0.3 µg/mL,"[2]; Rattus norvegicus, @ 0.3 μg/ml",66%
"CCCCC1=C(c2cccc(C(F)(F)F)c2)C(=NO)CC1 [Example 58, 3-butyl-2-{3-(trifluoromethyl)phenyl}-2-cyclopenten-1-one oxime]",melting point,,65 to 67 °C
same,inhibition at 3 µg/mL,[2]; Rattus norvegicus,59%
"CCCCCC1=C(c2ccccc2)C(=NO)CC1 [Example 66, 3-pentyl-2-phenyl-2-cyclopenten-1-one oxime]",melting point,,110 to 111 °C
same,IC50,[2],1 to 3 µg/mL
same,inhibition in vivo at 3 mg/kg,[3],45%
"CS(=O)(=O)c1cccc(C2=C(C3CCCC3)CCC2=NO)c1 [Example 23, 3-cyclopentyl-2-(3-methylsulfonylphenyl)-2-cyclopenten-1-one oxime]",melting point,,164 to 165 °C
same,IC50,[2],1.2 µg/mL
"CCCCC1=C(c2ccc(O)c(F)c2)C(=NO)CC1 [Example 41, 3-butyl-2-(3-fluoro-4-hydroxyphenyl)-2-cyclopenten-1-one oxime]",melting point,,141 to 147 °C
"CC(C)CC1=C(c2ccc(F)cc2)C(=NO)CC1 [Example 85, 2-(4-fluorophenyl)-3-isobutyl-2-cyclopenten-1-one oxime]",melting point,,154 to 157 °C
same,IC50,[2],0.77 µg/mL
"CCCCC1=C(c2ccc(F)c(F)c2)C(=NO)CC1 [Example 34, 3-butyl-2-(3,4-difluorophenyl)-2-cyclopenten-1-one oxime]",IC50,[2],0.3 µg/mL
"N#Cc1cccc(C2=C(C3CCCC3)CCC2=NO)c1 [Example 12, 2-(3-cyanophenyl)-3-cyclopentyl-2-cyclopenten-1-one oxime]",IC50,[1],0.16 µg/mL
same,melting point,,180 to 182 °C
same,IC50,[2],0.1 µg/mL
"CC(C)CC1=C(c2cccc(C#N)c2)C(=NO)CC1 [Example 89, 2-(3-cyanophenyl)-3-isobutyl-2-cyclopenten-1-one oxime]",melting point,,138 to 140 °C
same,IC50,[2],0.09 µg/mL
"ON=C1CCC(C2CCCCC2)=C1c1ccc(F)cc1 [Example 27, 3-cyclohexyl-2-(4-fluorophenyl)-2-cyclopenten-1-one oxime]",melting point,,173 to 176 °C
same,IC50,[2],0.34 µg/mL
same,inhibition in vivo at 3 mg/kg,[3],87%
"CCCCCC1=C(c2ccsc2)C(=NO)CC1 [Example 77, 3-pentyl-2-(3-thienyl)-2-cyclopenten-1-one oxime]",melting point,,105 to 106 °C
same,IC50,[2],2.8 µg/mL
"ON=C1CCC(C2CCCC2)=C1c1cccc(O)c1 [Example 24, 3-cyclopentyl-2-(3-hydroxyphenyl)-2-cyclopenten-1-one oxime]",melting point,,207 to 209 °C
"COc1cccc(C2=C(C3CCCCC3)CCC2=NO)c1 [Example 32, 3-cyclohexyl-2-(3-methoxyphenyl)-2-cyclopenten-1-one oxime]",melting point,,149 to 150 °C
same,IC50,[2],0.49 µg/mL
same,inhibition in vivo at 3 mg/kg,[3],92%
"N#Cc1cc(C2=C(C3CCCC3)CCC2=NO)ccc1F [Example 13, 2-(3-cyano-4-fluorophenyl)-3-cyclopentyl-2-cyclopenten-1-one oxime]",melting point,,167 to 168 °C
same,IC50,[2],0.4 µg/mL
same,inhibition in vivo at 0.3 mg/kg,[3]; 0.3 mg/kg oral gavage,70%
"CCCC1=C(c2cccc([N+](=O)[O-])c2)C(=NO)CC1 [Example 80, 2-(3-nitrophenyl)-3-propyl-2-cyclopenten-1-one oxime]",IC50,[2],0.2 µg/mL
same,inhibition in vivo at 3 mg/kg,[3],95%

# — patent US8013187B2, “2-cyclopenten-1-one oxime derivatives inhibiting production of TNF-α” (Amorepacific Corporation, priority 2004, dated 2011)
